Source: publication PMC5769417, “Single- and Multiple-Dose Trials to Determine the Pharmacokinetics, Safety, Tolerability, and Sex Effect of Oral Ginsenoside Compound K in Healthy Chinese Volunteers” (Frontiers in Pharmacology, 2018)
Like-named read-outs stand apart in the source and are kept apart here.

Assay: Single-dose trial, plasma pharmacokinetics
Type: in vivo, human
Settings: for Tmax / half-life / AUC(0-inf) / AUC(0-t) / MRT inf / MRT last / Cmax: both sexes, human, plasma; for Cmax: read-out: Cmax
Procedure: Single-dose pharmacokinetics: The single-dose trial was performed first. […] Drinking before and after medication was prohibited for 2 h, but the amount and time of drinking were not strictly controlled at other times. All subjects had standard lunch and dinner (unified light diet) after medication 4 and 10 h. Single-dose pharmacokinetics: […] We preserved 8 ml specimens into 10 ml centrifuge tubes and stored at −70°C for PK assessment. All samples were preserved at −70°C and analyzed with a LC-MS/MS (API 4000 LC-MS/MS, ABI Company, Foster City, CA, USA) at the Institute of Clinical Pharmacology, Central South University (Changsha, China). […] An aqueous solution of a stable internal standard (IS for CK: digoxin, Shijiaoke Biological Technology Co. Ltd., Beijing, China; IS for PPD: coumarin, Sigma-Aldrich, St. Louis, USA) and 1 M phosphate buffer were added to 0.5 ml of thawed sample, and analytical standards and quality control (QC) samples were prepared in the same matrix. All samples were treated with 2 ml of methyl tert-butyl ether (MTBE, CNW technologies GmbH, Duesseldorf, Germany) to precipitate the bulk of plasma proteins. After mechanical shock by mixing for 10 min and a subsequent centrifugation (4,000 rpm, 4°C, 10 min), 1.4 ml of the supernatant was transferred and blow-dried with nitrogen in a water bath at 40°C. Lastly, the residue was dissolved in 100 μl of mobile phase and then was subjected to a mechanical shock by mixing, and centrifuged. The supernatant was subsequently injected into the column for analysis. […] Accuracy and precision of the assay were determined by evaluating the performance of the assay controls. Over the quantification range, the accuracy of the QC samples varied from 85 to 115% and the intra- and inter-assay imprecision was <15%. PK parameters were derived according to noncompartmental analysis and actual elapsed time from dosing by WinNonlin version 6.1 (Pharsight Corporation, Mountain View, CA, USA). […] The area under the curve (AUC) from time zero to the last time point (AUClast) and the AUC extrapolated to infinity (AUCinf) were calculated using the linear trapezoidal rule. The slope (elimination rate constant, K) of the terminal phase of the plasma concentration-time profile was determined, using a weighting factor of 1, by the method of least squares (log-linear regression of at least three data points). The t1/2 was estimated as (ln2)/K. […] The apparent volume of distribution (V/F) was equal to (CL/F)/K. The mean residence time (MRT) was calculated as the area under the first moments curve (AUMC) divided by AUC. The dose-normalized PK parameters e.g., Cmax/D and AUClast/D, were obtained by dividing each PK result by the administered dose. The cumulative excretion rate was calculated as the amount of unchanged drug in the urine over a time interval divided by the dose and was expressed as thousand points (‰).

[1] = single-dose trial, 25 mg oral, fasting
[2] = single-dose trial, 50 mg oral, fasting
[3] = single-dose trial, 100 mg oral, fasting
[4] = single-dose trial, 200 mg oral, fasting
[5] = single-dose trial, 400 mg oral, fasting
[6] = single-dose trial, 600 mg oral, fasting
[7] = single-dose trial, 800 mg oral, fasting

**Q.** What does the source list for `CC(C)=CCC[C@](C)(OC1O[C@H](CO)[C@@H](O)[C@H](O)[C@H]1O)[C@H]1CC[C@]2(C)[C@@H]1[C@H](O)C[C@@H]1[C@@]3(C)CC[C@H](O)C(C)(C)[C@@H]3CC[C@]12C` (stereo partly drawn) [CK, 20-O-beta-D-glucopyranosyl-20(S)-protopanaxadiol]?
**A.** Tmax (oral, both trials, all doses, read-out: range of time to maximum concentration (Tmax)): 1.5 to 6 h; Tmax (oral, medians, both trials, read-out: Tmax in this study): 2.5 to 3.8 h; half-life (oral, single-dose trial, 25–800 mg, read-out: mean t1/2 across the dose groups): 13.5 to 26.2 h; Tmax (oral, single-dose trial, 25–800 mg, read-out: median Tmax across the dose groups): 2.5 to 3.3 h; Tmax (po, 25 mg, single-dose trial, 25 mg oral, fasting, read-out: Tmax, median (range)): 3 h; Tmax (po, 50 mg, single-dose trial, 50 mg oral, fasting, read-out: Tmax, median (range)): 3 h; Tmax (po, 100 mg, single-dose trial, 100 mg oral, fasting, read-out: Tmax, median (range)): 3 h; Tmax (po, 200 mg, single-dose trial, 200 mg oral, fasting, read-out: Tmax, median (range)): 3.3 h; Tmax (po, 400 mg, single-dose trial, 400 mg oral, fasting, read-out: Tmax, median (range)): 3 h; AUC(0-inf) [1]: 1270 ± 276 ng·h/mL; AUC(0-t) [1]: 1230 ± 267 ng·h/mL; MRT inf [1]: 10.9 ± 1.9 h; MRT last [1]: 8.9 ± 1.3 h; Cmax [1]: 175 ± 35.1 ng/mL; half-life (single-dose trial, 25 mg oral, fasting, read-out: t1/2 (converted)): 13.5 ± 0.6 h; AUC(0-inf) [2]: 2250 ± 861 ng·h/mL; AUC(0-t) [2]: 2120 ± 770 ng·h/mL; MRT inf [2]: 12.5 ± 2.4 h; MRT last [2]: 9.1 ± 0.7 h; Cmax [2]: 300 ± 98.5 ng/mL; half-life (single-dose trial, 50 mg oral, fasting, read-out: t1/2 (converted)): 15.9 ± 4.2 h; AUC(0-inf) [3]: 2820 ± 1440 ng·h/mL; AUC(0-t) [3]: 2760 ± 1420 ng·h/mL; MRT inf [3]: 13.7 ± 1 h; MRT last [3]: 11.4 ± 0.9 h; Cmax [3]: 351 ± 180 ng/mL; half-life (single-dose trial, 100 mg oral, fasting, read-out: t1/2 (converted)): 22.4 ± 3.3 h; AUC(0-inf) [4]: 6090 ± 3600 ng·h/mL; AUC(0-t) [4]: 5960 ± 3520 ng·h/mL; MRT inf [4]: 13.8 ± 1.6 h; MRT last [4]: 11.5 ± 1.4 h; Cmax [4]: 734 ± 408 ng/mL; half-life (single-dose trial, 200 mg oral, fasting, read-out: t1/2 (converted)): 21.6 ± 5.5 h; AUC(0-inf) [5]: 8240 ± 2050 ng·h/mL; AUC(0-t) [5]: 8100 ± 2020 ng·h/mL; MRT inf [5]: 14 ± 1.5 h; MRT last [5]: 11.9 ± 1.1 h; Cmax [5]: 1030 ± 295 ng/mL; half-life (single-dose trial, 400 mg oral, fasting, read-out: t1/2 (converted)): 22.3 ± 4 h; AUC(0-inf) [6]: 9280 ± 4240 ng·h/mL; AUC(0-t) [6]: 9090 ± 4200 ng·h/mL; MRT inf [6]: 15.9 ± 2.8 h; MRT last [6]: 12.7 ± 0.9 h; Cmax [6]: 1160 ± 466 ng/mL; half-life (single-dose trial, 600 mg oral, fasting, read-out: t1/2 (converted)): 26.2 ± 6.3 h; AUC(0-inf) [7]: 9200 ± 4180 ng·h/mL; AUC(0-t) [7]: 8990 ± 4100 ng·h/mL; MRT inf [7]: 14.7 ± 2.6 h; MRT last [7]: 12 ± 1.8 h; Cmax [7]: 1180 ± 445 ng/mL; half-life (single-dose trial, 800 mg oral, fasting, read-out: t1/2 (converted)): 25.7 ± 3 h; CL/F [1]: 20.5 ± 4.7 l·h ^−1; V/F [1]: 397 ± 86 L; CL/F [2]: 25.9 ± 11.2 l·h ^−1; V/F [2]: 559 ± 185 L; CL/F [3]: 44.5 ± 21.6 l·h ^−1; V/F [3]: 1381 ± 546 L; CL/F [4]: 47.7 ± 31.2 l·h ^−1; V/F [4]: 1287 ± 563 L; CL/F [5]: 51.2 ± 12.3 l·h ^−1; V/F [5]: 1613 ± 379 L; CL/F [6]: 76.1 ± 32.1 l·h ^−1; V/F [6]: 3057 ± 2094 L; CL/F [7]: 106 ± 50.3 l·h ^−1; V/F [7]: 3993 ± 2136 L
